The results in this text go back to a melting point compilation (Tetko et al.; mined from patent text by program, amines drawn as free bases though some values may be those of a salt).

Residues, ends and D or L forms follow the SMILES beside them. *: point of attachment. Tos = Cc1ccc(S(=O)(=O)*)cc1 Some results are limits rather than exact numbers.

`CCN1C(=O)CNCc2cc(OC)c([N+](=O)[O-])cc21` registered a melting point of 132 to 134 °C.

Consider `CC1=C(C#N)C(=C(C#N)C#N)OC1(C)c1ccc(Cl)cc1Cl` (stereo not given), for which the melting point lay in the range of 239 to 240 °C.

Take `CCOC(=O)c1nccn1C1Cc2c(cccc2-c2ccccc2)C1=O` (stereo not given): the melting point was 185 °C.

`CCOC(=O)C1=C(C)N=C(SCc2ccc(OC)cc2)N(C(=O)OCC)C1c1cccc(Cl)c1Cl` (stereo not given) showed a melting point of 124 to 126 °C.

Take `COc1ccc2cc(CNCCNC(=O)C34CC5CC(CC(C5)C3)C4)oc2c1OC`: the melting point lay within 206 to 207 °C.

In the case of `CCOC(=O)NN=C(c1ccc(Cl)cc1)c1ccc(OS(=O)(=O)c2ccc([N+](=O)[O-])cc2)cc1`, the melting point is 134 to 138 °C.

With `NC(N)=NC(=O)Cc1c(-c2ccccc2Cl)csc1-c1ccc(Oc2ccccc2)cc1`, the melting point lay in the range of 76 to 78 °C.

`CCCCOc1cc(CCC(=O)O)ccc1CCCc1ccc(OCC)c(OC)c1` returned a melting point of 66 °C.

As to `Cc1ccc(S(=O)(=O)NCC(=O)N[C@@H](Cc2ccccc2)C(=O)O)cc1` (Tos-Gly-Phe-OH), the melting point was 157 to 161 °C.

Turning to `O=C(O)Cc1ccc2c(c1)C(=O)Cc1ccccc1C2`, the melting point was in the range of 171 to 173 °C.

Regarding `COc1cc(C=CCn2cncn2)ccc1OCc1ccccc1`, the melting point is 70 to 72 °C.

For the molecule `CCCOc1ccccc1-c1ccc(C#N)c(=O)[nH]1`, the melting point was 244 to 247 °C.

`COc1cc2c(cc1OC)CCCC(C(=O)N1CCNCC1)=C2` registered a melting point of 137 to 138 °C.

`CCc1cccc(C)c1CNc1cc(OC)nc(NC)c1[N+](=O)[O-]` showed a melting point of 147 to 149 °C.

`CC1(C)OC(=O)Nc2ccc(-c3cccc([N+](=O)[O-])c3)cc21` had a melting point of 244 to 245 °C.

With `N#Cc1ccccc1Oc1ccc(Cl)cc1`, the melting point lay in the range of 84 to 86 °C.

Take `NC1CCN(c2c(F)cc3c(=O)c(C(=O)O)cn(C4CC4)c3c2F)C1` (stereo not given): the melting point was 290 to 292 °C.

`COC(=O)CCc1[nH]c(Cc2ccc(OCc3nc(-c4ccccc4)oc3C)cc2)nc1-c1ccccc1` registered a melting point of 128 to 129 °C.

In turn, `Nc1ccc(OCc2cscn2)cc1` registered a melting point of 114 to 115 °C.

The molecule `O=C(C(=O)C12CC3CC(CC(C3)C1)C2)c1ccc(OC(F)F)cc1` yielded a melting point of 118 to 120 °C.

The molecule `O=C1CN(Cc2ccccc2)CC2c3ccccc3CCCN12` (stereo not given) showed a melting point of 125 to 128 °C.

The molecule `O=c1[nH]c2cc(Cl)cc(OCCNCc3ccsc3)c2[nH]1` displayed a melting point of over 250 °C.

Molecule `CCCc1c(OCCCCCCc2cccc(OCCCCCC(=O)O)c2CCC(=O)O)ccc2c1CCCC2=O` returned a melting point of 100 to 101 °C.

As to `OC1CCCCC1n1cnc2cc(Cl)c(Cl)cc21` (stereo not given), the melting point was in the range of 236 to 238 °C.

For the molecule `O=c1[nH]cnc2c(Br)scc12`, the melting point lay within 226 to 229 °C.

Take `CNC(=O)C1=C(OC(C)C)c2cc(OC)ccc2S1=O` (stereo not given): the melting point lay within 123 to 124 °C.

The molecule `COCCOc1ccc(CCCNS(=O)(=O)CCCc2ccccc2)c(Oc2ncc(C(F)(F)F)cc2Cl)c1` returned a melting point of 102 °C.

`CCOCc1nc2c(N)nc3ccccc3c2n1OC(C)C`: the melting point lay in the range of 179 to 181 °C.

Molecule `Cc1c(Cc2ccc(C(C)C)cc2)c2c(c(C)c1NC(=O)CC(C)(C)C)C(C)(O)C(C)(C)O2` (stereo not given) came in with a melting point of 170 to 171 °C.

As to `CC(=O)n1nc(C)c2ccc(F)cc21`, the melting point lay within 89 to 91 °C.

Regarding `CNC(=O)c1ccc(F)c2c1CC(N(CCCCc1c[nH]c3ccc(F)cc13)CC1CC1)CO2` (stereo not given), the melting point came out at 112 °C.

`CONC(=O)c1cnn(-c2ccccc2)c1Br` gave a melting point of 194 to 197 °C.

The molecule `COc1cc(C=O)cc(I)c1OCc1ccccc1` had a melting point of 53 to 54 °C.

Take `O=C1NCc2c(Cl)nc3ccccc3c21`: the melting point is 169 to 171 °C.

With `NS(=O)(=O)c1ccccc1CN1CCCC1=O`, the melting point fell in the range of 149 to 151 °C.

With `CC(C)C(C)(C#N)N1C(=O)c2ccc3c(ccn3C)c2C1=O` (stereo not given), the melting point fell in the range of 123 to 128 °C.

`CC(C)n1nc(-c2cnc(N3CCOCC3)nc2-c2ccccc2)ccc1=O` had a melting point of 200 to 202 °C.

`Nc1ccc2ccc(SCc3ccccc3)nc2n1`: the melting point was determined as 167 °C.

The molecule `O=c1cc2c(nn1-c1ccc(Cl)cc1)-c1ccccc1S(=O)CC2` (stereo not given) had a melting point of 233 to 234 °C.

The molecule `Cc1ccc(C(=O)O)c(NS(C)(=O)=O)c1` had a melting point of 202 to 205 °C.

In turn, `CC(c1oc2ccccc2c(=O)c1-c1cccc(F)c1)n1nc(-c2cc(O)ccc2Cl)c2c(N)ncnc21` (stereo not given) registered a melting point of 192 to 195 °C.

Consider `CCC(=O)Oc1c(OC)c(OC)c(OC(C)=O)c2ccc(Cl)cc12`, for which the melting point fell in the range of 86 to 87 °C.

The molecule `CC(=O)OC1CSC(Oc2ccc(C)nc2-c2cccnc2)C(OC(C)=O)C1OC(C)=O` (stereo not given) returned a melting point of 92 to 102 °C.

As to `N#CCN1C2CCC1CC(OC(c1ccccc1)c1ccccc1)C2` (stereo not given), the melting point fell in the range of 94 to 97 °C.

`CCCn1nc2c(N)nc3ccccc3c2c1CCNC(=O)CC` showed a melting point of 184 to 185 °C.

`CN1CCN(C(=NNc2ccccc2Cl)c2ccccc2F)CC1` displayed a melting point of 109 to 111 °C.

`Nc1ccc(CC(NC(=O)CCCCCCCCCCNC(=O)C(c2ccccc2)c2ccccc2)c2ccccc2)cc1` (stereo not given) registered a melting point of 96 to 102 °C.

Regarding `COC(=O)Cc1sc(Sc2cc(C(=O)OC)nc(SC)n2)nc1C`, the melting point lay within 131 to 133 °C.

`CS(=O)(=O)c1ccc(-c2cnn(C3CCc4ccccc43)c(=O)c2-c2ccc(F)cc2)cc1` (stereo not given) yielded a melting point of 128 to 130 °C.

`COC(=O)C1=CC(=O)CC(c2ccc(Cl)cc2)N1` (stereo not given): the melting point lay within 113 to 114 °C.

For `Cc1cc(C)cc(Sc2c(CC#N)nc(C)n2C)c1`, the melting point is 81 to 82 °C.

The molecule `COC(=O)N1CCC(C(C(N)=O)(c2ccc(F)cc2)c2ccc(F)cc2)CC1` gave a melting point of 126 to 129 °C.

`O=C(O)C1=Cc2cc(-c3ccc(Br)cc3)ccc2OC1C(F)(F)F` (stereo not given) registered a melting point of 215 to 216 °C.

Consider `CC(C)n1c(=O)ccc2cnc(Nc3cccnc3)nc21`, for which the melting point lay within 156 to 158 °C.

In the case of `CC[C@H](C)C(=O)c1ccc(-c2ccc(OC)cc2)cc1`, the melting point was 119 to 120 °C.

The molecule `COC(=O)c1ccc2[nH]c(/C=C/c3ccc(OC)c(OC)c3)nc2c1` registered a melting point of 185 to 188 °C.

Molecule `C#CCN1C(Oc2ccc(C)cc2)=NS(=O)(=O)N=C1Oc1ccc(C)cc1` came in with a melting point of 279 to 280 °C.

`O=Cc1ccnc2c(NC(=O)c3c(Cl)cccc3Cl)cccc12` yielded a melting point of 239 °C.

Consider `Cn1c(S(=O)(=O)c2ccc(C(=O)OCC(C)(C)C)c(Cl)c2)n[nH]c1=O`, for which the melting point stood at 177 °C.

Molecule `CCCc1cccc2cc(C(=O)O)oc12` returned a melting point of 75 to 80 °C.

Regarding `CCOC(=O)C(=O)N(CC)C(=O)OCCOc1ccc(Oc2ccccc2)cc1`, the melting point is 56 to 58 °C.

On to `Cc1c(C)c2c(c(C)c1N)CC(C)(C)O2`, for which the melting point was 110 °C.

`O=C(O)C=CC(=O)Nc1n[nH]c2ccc(Br)cc12` gave a melting point of 172 °C.

On to `CNC(=O)c1cc(-c2ccc(OC)c(F)c2)nn(CC(C)C)c1=O`, for which the melting point was in the range of 153 to 155 °C.

Molecule `ICCCn1c2ccccc2c2ccccc21` registered a melting point of 152 to 156 °C.

Consider `C#CCN(C(=O)c1cn(C)cc1C(F)(F)F)c1cccc2c1C(C)CC2(C)C` (stereo not given), for which the melting point fell in the range of 142 to 144 °C.

Take `COc1cc2c(Nc3ccc(Cl)cc3F)ncnc2cc1O`: the melting point lay within 141 to 143 °C.

`CCCCOc1cccn2c(=O)cc(C)nc12` returned a melting point of 93 to 94 °C.

Regarding `CCOC(=O)c1c(Nc2cccc(SC)c2)n[nH]c1C`, the melting point lay within 192 to 194 °C.

For `COc1cc2ncc(C#N)c(Nc3ccc(O)cc3Cl)c2cc1OC`, the melting point was over 250 °C.

On to `CC(C)(CO)c1ccc(C(=O)Nc2cn3cc(C(F)(F)F)ccc3n2)cc1`, for which the melting point was 227 to 229 °C.

Molecule `COc1cc(N)c(Cl)cc1C(=O)N[C@H]1CCN(CCCC(=O)N2CCC(=O)CC2)C[C@H]1OC` (relative stereo) registered a melting point of 157 °C.

Consider `CCOc1cc2ncnc(N3CCN(C(=O)Nc4ccc([N+](=O)[O-])cc4)CC3)c2cc1OCC`, for which the melting point was 120 to 121 °C.

`CCCCCN(Cc1ccc(-c2ccccc2S(=O)(=O)NC(=O)c2ccccc2Cl)cc1)C(=O)N1CCc2ccccc21` displayed a melting point of 83 to 85 °C.

On to `CC(=O)C(=Cc1cccc([N+](=O)[O-])c1)C(=O)OCCBr`, for which the melting point is 94.5 to 95.5 °C.

`O=C(Nc1nccs1)c1c(C(F)(F)F)nc2ccccc2c1O` came in with a melting point of over 280 °C.

Take `CCCCN=c1cc2n(c(=O)n1C)CCc1cc(OC)c(OC)cc1-2`: the melting point lay in the range of 120 to 121 °C.

`CCOC(=O)/C=C/c1cn(-c2ccc(Cl)cn2)nc1C(C)C` displayed a melting point of 105 to 106 °C.

`O=c1[nH]ncc(Cl)c1NCCCN1CCC(c2noc3cc(F)ccc23)CC1` had a melting point of 198 to 200 °C.

In the case of `CC(=O)NCC1CN(c2ccc(N3CCN(C(=O)COC(=O)c4cccnc4)CC3)c(F)c2)C(=O)O1` (stereo not given), the melting point lay within 173 to 175 °C.

In the case of `Cc1ncn2c1CN(C)C(=O)c1ccccc1-2`, the melting point fell in the range of 184 to 186 °C.

`O=c1c2c(Cc3ccc(OC(F)(F)F)cc3)n[nH]c2c2cccnc2n1-c1cccc(C(F)(F)F)c1` had a melting point of 134 to 137 °C.

The molecule `O=C(Nc1ccc2ccc(Cl)nc2n1)c1c(F)cccc1F` registered a melting point of 242 °C.

`C=CCc1cc(Cc2cnc(N)nc2N)c2ccc(C)nc2c1OC` registered a melting point of 219 to 222 °C.

For the molecule `CN(C)C(=O)c1ccc(C(C)(C)C)c(N)c1`, the melting point was in the range of 186 to 188 °C.

Molecule `O=c1c2c(n(-c3ccccc3)c3ncccc13)OC(CBr)C2` (stereo not given) displayed a melting point of 187 to 188 °C.

Regarding `CC(Oc1ncn(-c2ccc(Cl)cc2Cl)n1)C(=O)O` (stereo not given), the melting point is 151 to 153 °C.

For `OCCOCCn1c2ccccc2c2ccccc21`, the melting point was in the range of 80 to 81 °C.

With `CC(C)(C)OC(=O)N1C(=O)[C@H]2C=C[C@@H]1C2`, the melting point fell in the range of 70.5 to 71.5 °C.

Regarding `CC[C@@H](C)[C@H](NC(=O)NCCNC(=O)OC(C)(C)C)C(=O)OC`, the melting point was in the range of 86 to 89 °C.
